# US20250289827A1, “MORPHIC FORMS OF A MUTANT BRAF DEGRADER AND METHODS OF MANUFACTURE THEREOF” (C4 THERAPEUTICS, INC., priority 2022, published 2025)
# Structures can show the parent of a compound that is named as a salt. Where two headings read alike, the source gives them in different places.
# Tests used:
# Format in all cases: physicochemical
# [1] = Hygroscopicity of sodium salt Form F by DVS at 25° C.; details: for Form and crystallinity change after DVS test: DVS 25° C.
# Protocol: Hygroscopicity of sodium salt Form F was evaluated by dynamic vapor sorption (DVS) test at 25° C.
# [2] = Bulk stability of sodium salt Form F (1 week stress); details: for Bulk (XRPD) / Color / Purity, Bulk (HPLC): Solid state; for Decrease in chemical purity: one week stress at 25° C./92% RH
# Protocol: Sodium salt Form F was placed at 25° C./92% RH in an open container, at 40° C./75% RH in an open container and at 60RC in a closed container for 1 week. Samples after the stress were characterized by XRPD and HPLC and inspected for color change.
# [3] = Photostability evaluation of sodium salt Form F
# [4] = Solubility in aqueous pH buffers and bio-relevant fluids at 37° C.; details: for XRPD 24 h: residual solid
# Protocol: Solubility of the Form B and sodium salt Form F was measured in 7 aqueous pH buffers and bio-relevant fluids including pH 1.2 HCl solution (0.2N), pH 4.5 acetate buffer (50 mM), pH 6.8 phosphate buffer (50 mM), pH 2.0 SGF, pH 6.5 FaSSIF-v1, pH 5.0 FeSSIF-v1 and water at 37° C. for 2 h and 24 h, respectively.
# Accurate 20 mg of the Form B was weighed into a 20 mL glass vial. Then, 10 mL of solubility medium was added. The sodium salt Form F amount used was equivalent to 20 mg anhydrous form. Obtained suspensions were stirred at 37° C. at 400 rpm and sampled at 2 hours and at 24 hours, respectively. The samples were centrifuged at 37° C. at 4,000 rpm for 4 min. Supernatants were analyzed by HPLC and pH meter for solubility and pH value, respectively. Residual solids (wet cakes) from the 24 hours samples were also characterized by XRPD to determine physical form.
# [5] = Characterization of salt forms (XRPD, DSC, TGA, KF, HPLC, NMR/IC); details: for Melting onset (DCS, ° C.): Tonset
# Protocol: Salt Forms identified in the investigation (Table 16) were further characterized by XRPD, DCS, TGA, KF, HPLC and ^1H NMR/IC (Table 19).
# About 419 mg of sodium salt Form F was obtained as off-white solid in 76% yield.
# [6] = Equilibration under a temperature cycle (XRPD); details: 2-methyltetrahydrofuran, about 8 cycles
# Protocol: The equilibration was executed with a stirring bar on a magnetic stirring plate at a rate of 300 rpm. The obtained suspensions were filtered through a 0.45 µm nylon membrane filter by centrifugation at 14,000 rpm. Solid parts (wet cakes) were investigated by XRPD.
# [7] = 25° C./92% RH, open container, 1 week
# [8] = 40° C./75% RH, open container, 1 week
# [9] = 60° C., tight container, 1 week
# [10] = Solid state, photo (visible light, 1.2 million lux-hrs)
# [11] = FaSSIF-v1, pH 6.5, 37° C., LOQ: 1.5 μg/mL
# [12] = pH 1.2 HCl solution (0.2N), 37° C.
# [13] = pH 4.5 acetate buffer (50 mM), 37° C.
# [14] = pH 4.5 acetate buffer (50 mM), 37° C., LOQ: 1.5 μg/mL
# [15] = pH 6.8 phosphate buffer (50 mM), 37° C.
# [16] = pH 6.8 phosphate buffer (50 mM), 37° C., LOQ: 1.5 μg/mL
compound,measurement,setting,value
CCN(C)S(=O)(=O)[N-]c1ccc(F)c(Oc2ccc3ncn([C@H]4COC5(CCN(C(=O)CC6(O)CCN(c7cc8c(cc7F)c(N7CCC(=O)NC7=O)nn8C)CC6)CC5)C4)c(=O)c3c2)c1C#N.[Na+] [Compound 1 sodium salt Form F],1st desorp. Weight % change,"[1]; 0% RH, 25° C.",0.0%
same,2nd sorp. Weight % change,"[1]; 0% RH, 25° C.",0.0%
same,1st desorp. Weight % change,"[1]; 10% RH, 25° C.",0.6%
same,2nd sorp. Weight % change,"[1]; 10% RH, 25° C.",0.5%
same,1st desorp. Weight % change,"[1]; 20% RH, 25° C.",1.2%
same,2nd sorp. Weight % change,"[1]; 20% RH, 25° C.",0.8%
same,1st desorp. Weight % change,"[1]; 30% RH, 25° C.",2.2%
same,2nd sorp. Weight % change,"[1]; 30% RH, 25° C.",1.2%
same,1st desorp. Weight % change,"[1]; 40% RH, 25° C.",3.7%
same,1st sorp. Weight % change,"[1]; 40% RH, 25° C.",3.1%
same,2nd desorp. Weight % change,"[1]; 40% RH, 25° C.",3.9%
same,2nd sorp. Weight % change,"[1]; 40% RH, 25° C.",1.5%
same,1st desorp. Weight % change,"[1]; 50% RH, 25° C.",5.0%
same,1st sorp. Weight % change,"[1]; 50% RH, 25° C.",3.3%
same,2nd desorp. Weight % change,"[1]; 50% RH, 25° C.",5.2%
same,2nd sorp. Weight % change,"[1]; 50% RH, 25° C.",2.2%
same,1st desorp. Weight % change,"[1]; 60% RH, 25° C.",6.1%
same,1st sorp. Weight % change,"[1]; 60% RH, 25° C.",3.4%
same,2nd desorp. Weight % change,"[1]; 60% RH, 25° C.",6.2%
same,2nd sorp. Weight % change,"[1]; 60% RH, 25° C.",3.5%
same,1st desorp. Weight % change,"[1]; 70% RH, 25° C.",7.5%
same,1st sorp. Weight % change,"[1]; 70% RH, 25° C.",3.7%
same,2nd desorp. Weight % change,"[1]; 70% RH, 25° C.",7.7%
same,2nd sorp. Weight % change,"[1]; 70% RH, 25° C.",5.8%
same,1st desorp. Weight % change,"[1]; 80% RH, 25° C.",9.7%
same,1st sorp. Weight % change,"[1]; 80% RH, 25° C.",4.1%
same,2nd desorp. Weight % change,"[1]; 80% RH, 25° C.",9.9%
same,2nd sorp. Weight % change,"[1]; 80% RH, 25° C.",7.9%
same,1st desorp. Weight % change,"[1]; 90% RH, 25° C.",15.5%
same,1st sorp. Weight % change,"[1]; 90% RH, 25° C.",7.0%
same,2nd desorp. Weight % change,"[1]; 90% RH, 25° C.",16.4%
same,2nd sorp. Weight % change,"[1]; 90% RH, 25° C.",13.1%
same,1st desorp. Weight % change,"[1]; 95% RH, 25° C.",16.7%
same,1st sorp. Weight % change,"[1]; 95% RH, 25° C.",16.7%
same,2nd desorp. Weight % change,"[1]; 95% RH, 25° C.",19.6%
same,2nd sorp. Weight % change,"[1]; 95% RH, 25° C.",19.6%
same,Form and crystallinity change after DVS test,[1],no changes in crystallinity
same,Form and crystallinity change after DVS test,[1]; listed as sodium salt Form F,no form change and no crystallinity decrease
same,Hygroscopicity,"[1]; below 80% RH, 25° C.",slightly hygroscopic
same,Water uptake,[1]; from 80% RH to 95% RH at 25° C.,12.6%
same,Crystallinity change,"[2]; 60° C. in a tight/closed container, 1 week",slight crystallinity decrease
same,Bulk (XRPD),[2]; [7],No form change
same,Color,[2]; [7],No change of color
same,"Purity, Bulk (HPLC)",[2]; [7],97.7%
same,Bulk (XRPD),[2]; [8],No form change
same,Color,[2]; [8],No change of color
same,"Purity, Bulk (HPLC)",[2]; [8],98.5%
same,Bulk (XRPD),[2]; [9],"No form change, slight crystallinity decrease"
same,Color,[2]; [9],No change of color
same,"Purity, Bulk (HPLC)",[2]; [9],98.9%
same,Decrease in chemical purity,[2]; listed as Form F,1.2%
same,Decrease in chemical purity,[2]; listed as Sodium salt Form F,about 1.2%
same,Morphic form stability (form change),"[2]; one week, 25° C./92% RH open, 40° C./75% RH open, 60° C. tight container",no form change
same,Chemical purity decrease after photostability evaluation,[3],about 1%
same,Bulk (XRPD),[3]; [10],No form change
same,Color,[3]; [10],No change of color
same,"Purity, Bulk (HPLC)",[3]; [10],97.9%
same,"Purity, Control (HPLC)","[3]; photo test, control sample",98.9%
same,Disproportionation after solubility test (IC),[4],partially disproportionated
same,pH of supernatant 24 h,"[4]; FaSSIF-v1, pH 6.5, 37° C.",(pH = 6.7)
same,Solubility 2 h,[4]; [11],<LOQ
same,Solubility 24 h,[4]; [11],<LOQ
same,Solubility 2 h,"[4]; FeSSIF-v1, pH 5.0, 37° C.",6.7 µg/mL
same,Solubility 24 h,"[4]; FeSSIF-v1, pH 5.0, 37° C.",10.4 µg/mL
same,pH of supernatant 24 h,"[4]; FeSSIF-v1, pH 5.0, 37° C.",(pH = 5.1)
same,Solubility 2 h,"[4]; SGF, pH 2.0, 37° C.",10.9 µg/mL
same,Solubility 24 h,"[4]; SGF, pH 2.0, 37° C.",8.6 µg/mL
same,pH of supernatant 24 h,"[4]; SGF, pH 2.0, 37° C.",(pH = 2.2)
same,Solubility 24 h,"[4]; Water, 37° C.",73.0 µg/mL
same,pH of supernatant 24 h,"[4]; Water, 37° C.",(pH = 8.7)
same,Solubility 2 h,"[4]; Water, 37° C., LOQ: 1.5 μg/mL",98.8 µg/mL
same,pH dependence of solubility,"[4]; aqueous media, 37° C.",pH dependent solubility
same,Solubility compared with Form B,"[4]; especially pH 1.2 HCl solution, pH 4.5 acetate buffer, SGF, FeSSIF-v1, 37° C.",better solubility than that of the Form B
same,Solubility 2 h,[4]; [12],19.3 µg/mL
same,Solubility 24 h,[4]; [12],51.1 µg/mL
same,pH of supernatant 24 h,[4]; [12],(pH = 1.0)
same,Crystallinity change after solubility test,[4]; pH 1.2 HCl solution and SGF,crystallinity decrease
same,pH of supernatant 24 h,[4]; [13],(pH = 4.6)
same,Solubility 2 h,[4]; [14],<LOQ
same,Solubility 24 h,[4]; [14],3.7 µg/mL
same,pH of supernatant 24 h,[4]; [15],(pH = 6.9)
same,Solubility 2 h,[4]; [16],<LOQ
same,Solubility 24 h,[4]; [16],<LOQ
same,XRPD 24 h,"[4]; FaSSIF-v1, pH 6.5, 37° C.",No form change
same,XRPD 24 h,"[4]; FeSSIF-v1, pH 5.0, 37° C.",No form change
same,XRPD 24 h,"[4]; Water, 37° C.",No form change
same,XRPD 24 h,[4]; [13],No form change
same,XRPD 24 h,[4]; [15],No form change
same,Crystallinity by XRPD,"[5]; Table 20, batch of Example 24",Medium crystallinity
same,"DSC, heating rate [10° C./min]: Tonset","[5]; Table 20, batch of Example 24",Tonset 194.7 °C
same,Melting enthalpy,"[5]; Table 20, batch of Example 24",32.4 J/g
same,"Residual solvent by ^1H NMR, weight %","[5]; Table 20, batch of Example 24",No detectable residual solvent
same,Water content by Karl Fischer,"[5]; Table 20, batch of Example 24",2.5 equiv. water
same,"Water content by Karl Fischer, weight %","[5]; Table 20, batch of Example 24",4.6 % by weight
same,"Melting onset (DCS, ° C.)",[5]; listed as Sodium salt Form F,Tonset 197.7 °C
same,Weight loss (TGA),[5]; at 100° C.,"2.7% at 100° C.,"
same,Weight loss (TGA),[5]; at 100° C.-170° C.,3.2% at 100° C.-
same,"Weight loss in % at ° C. (Thermogravimetry, heating rate [10° C./min])","[5]; at 180° C., Table 20, batch of Example 24",4.8% at 180 °C
same,Water content (by KF),[5]; listed as Sodium salt Form F,6.2% by % by weight
CCN(C)S(=O)(=O)Nc1ccc(F)c(Oc2ccc3ncn([C@H]4COC5(CCN(C(=O)CC6(O)CCN(c7cc8c(cc7F)c(N7CCC(=O)NC7=O)nn8C)CC6)CC5)C4)c(=O)c3c2)c1C#N [Compound 1 Form C],Form conversion on temperature cycling,[6],converted to more stable Form B
same,Form conversion on temperature cycling,[6]; listed as Form C,converted to anhydrate Form B
CCN(C)S(=O)(=O)[N-]c1ccc(F)c(Oc2ccc3ncn([C@H]4COC5(CCN(C(=O)CC6(O)CCN(c7cc8c(cc7F)c(N7CCC(=O)NC7=O)nn8C)CC6)CC5)C4)c(=O)c3c2)c1C#N.[Na+] [Compound 1 sodium salt Form D],"Melting onset (DCS, ° C.)",[5]; listed as Sodium salt Form D,Tonset 229.5 °C
same,Weight loss (TGA),[5]; at 150° C.,6.9% at
same,"Enthalpy (DSC, J/g)",[5]; listed as Sodium salt Form D,27.83 J/g
CCN(C)S(=O)(=O)[N-]c1ccc(F)c(Oc2ccc3ncn([C@H]4COC5(CCN(C(=O)CC6(O)CCN(c7cc8c(cc7F)c(N7CCC(=O)NC7=O)nn8C)CC6)CC5)C4)c(=O)c3c2)c1C#N.[K+] [Compound 1 potassium salt Form G],Weight loss (TGA),[5]; at 170° C.,"4.5% at 170° C.,"
same,Weight loss (TGA),[5]; at 170° C.-230° C.,4.8% at 170° C.-
CCN(C)S(=O)(=O)Nc1ccc(F)c(Oc2ccc3ncn([C@H]4COC5(CCN(C(=O)CC6(O)CCN(c7cc8c(cc7F)c(N7CCC(=O)NC7=O)nn8C)CC6)CC5)C4)c(=O)c3c2)c1C#N [Compound 1 potassium salt Form H],"Enthalpy (DSC, J/g)",[5],33.48 J/g
same,"Melting onset (DCS, ° C.)",[5],Tonset 221.7 °C
same,Weight loss (TGA),[5]; at 170° C.,6.6% at
CCN(C)S(=O)(=O)[N-]c1ccc(F)c(Oc2ccc3ncn([C@H]4COC5(CCN(C(=O)CC6(O)CCN(c7cc8c(cc7F)c(N7CCC(=O)NC7=O)nn8C)CC6)CC5)C4)c(=O)c3c2)c1C#N.[Na+] [Compound 1 sodium salt Form E],"Melting onset (DCS, ° C.)",[5]; listed as Sodium salt Form E,Tonset 228.7 °C
same,Weight loss (TGA),[5]; at 180° C.,10.8% at
same,"Enthalpy (DSC, J/g)",[5]; listed as Sodium salt Form E,26.01 J/g
same,Water content (by KF),[5]; listed as Sodium salt Form E,10.2% by % by weight
